Tests used:
[1] = test system: MDA-MB-231 xenograft tumor; test: In vivo tumorigenicity study, MDA-MB-231 xenograft mice; design: species or system NOD/ShiJic-SCID mice
Experimental: (§1) Animal study was approved by the UiTM Committee on Animal Research and Ethics (Ethic approval number: UiTM CARE 278/2019 (05/04/2019)). All animal experiments were conducted in accordance with standard ethical guidelines. Six- to eight-week-old female SPF NOD/ShiJic-SCID mice were obtained from Nomura Siam International (Bangkok, Thailand). All mice were housed in the pathogen-free environment under controlled conditions (temperature 20–26 °C, humidity 40–70%, light/dark cycle 12 h/12 h) and received water and food ad libitium. To evaluate the tumorigenesis in the animal model, the highly aggressive MDA-MB-231 cell lines were injected into SCID mice to induce the breast cancer model. MDA-MB-231 cell lines (ATCC® HTB-26™) were grown in Leibovitz’s medium (L15) (HyClone, Rd. Logan, UT, USA) with 10% fetal bovine serum (FBS) (Gibco, Gaithersburg, MD, USA) and 1% penicillin-streptomycin (Beyotime Biotechnology, Haimen, Jiangsu, China) in a humidified incubator at 37 °C without CO2. Mice were subcutaneously injected with 3 × 10^6/100 μL MDA-MB-231 cells into the right flank region in the SCID mice.
(§2) Body weight and tumor volume were measured weekly up to two months. The tumor-growth-inhibition rate (I.R.) was calculated using the following formula: I.R. (%) = {[(Average tumor volume of the control − average tumor volume of the treated group)/Average tumor volume of the control] * 100%}. After two months, serum blood was collected for biochemical analysis. Subsequently, all organs (liver, kidney, spleen, heart and lung) and tumors were excised, weighted and calculated as relative organ weight (expressed as the percentage of organ weight to body weight). The tumors were snap-frozen in liquid nitrogen for gene expression analysis later.

[2] = Body weight and relative organ weight in MDA-MB-231 xenograft mice; type: in vivo, NOD/ShiJic-SCID mice; details: up to eight weeks
Experimental: as §1, with “All mice were housed in the pathogen-free environment under controlled conditions (temperature 20–26 °C, humidity 40–70%, light/dark cycle 12 h/12 h) and received water and food ad libitium.” left out, “HTB-26TM)” for “HTB-26™)”, “Leibovitz's” for “Leibovitz’s”, “mice. […] Body weight and tumor volume were measured weekly up to two months. […] Subsequently, all organs (liver, kidney, spleen, heart and lung) and tumors were excised, weighted and calculated as relative organ weight (expressed as the percentage of organ weight to body weight). […]” for “mice.”

estrogen (ES) = test: Serum ELISA of estrogen in xenograft mice; type: in vivo; details: TAM 30 mg/kg vs non-treated xenograft mice
[3] = test system: vascular endothelial cell growth factor (VEGF); test: Serum ELISA of VEGF in xenograft mice; type: in vivo; details: high-dose M1S9 or TAM 30 mg/kg vs non-treated xenograft mice
Experimental: as §2
(§3) Serum blood was subjected to biochemical analysis on calcineurin (CaN), estrogen (ES) and vascular endothelial cell growth factor (VEGF) proteins using ELISA kits (FineTest, Wuhan, China), following the manufacturer’s instructions. […] Eluted RNA was quantitated and purity-checked using UV-absorbance-based NanoDrop® (Thermo Scientific, Wilmington, NC, USA) and Agilent 2100 Bioanalyzer RNA 6000 Nano Chip (Agilent, Palo Alto, CA, USA), respectively. […] Threshold cycle (CT) of each gene was analyzed for ΔΔCT after normalization using housekeeping genes in the web-based RT^2 Profiler Data Analysis Software (https://www.qiagen.com/my/shop/genes-and-pathways/data-analysis-center-overview-page/).

[4] = test system: 84 key human breast cancer genes in MDA-MB-231 xenograft tumor; test: Human Breast Cancer RT2 Profiler PCR array on excised tumor; type: in vivo, mice; details: TAM-treated vs non-treated, p < 0.05
Experimental: as §2
Serum blood was subjected to biochemical analysis on calcineurin (CaN), estrogen (ES) and vascular endothelial cell growth factor (VEGF) proteins using ELISA kits (FineTest, Wuhan, China), following the manufacturer’s instructions. The Human Breast Cancer RT^2 Profiler PCR array (Rotor-Gene® Format) (PAHS-131ZR, Qiagen® GmbH, Hilden, Germany) was used to profile the expression of 84 genes associated with key human breast cancer pathways. Briefly, total RNA was isolated from pulverized tumor tissues of non-treated (negative control), high-dose M1S9-treated mice and TAM-treated (positive control) using RNeasy® Lipid Tissue Mini kit (Qiagen® GmbH, Hilden, Germany). Three biological replicates were prepared from each group. Eluted RNA was quantitated and purity-checked using UV-absorbance-based NanoDrop® (Thermo Scientific, Wilmington, NC, USA) and Agilent 2100 Bioanalyzer RNA 6000 Nano Chip (Agilent, Palo Alto, CA, USA), respectively. A total of 1000 ng of RNA sample was converted to cDNA using RT^2 First Strand Kit (Qiagen® GmbH, Hilden, Germany) according to the manufacturer’s protocol. The cDNA was then mixed with RT^2 SYBR Green ROX FAST Mastermix and RNase-free water before dispensing into the array and then subjected to Rotor-Gene® Q real time PCR cycler (Qiagen® GmbH, Hilden, Germany) for analysis. Threshold cycle (CT) of each gene was analyzed for ΔΔCT after normalization using housekeeping genes in the web-based RT^2 Profiler Data Analysis Software (https://www.qiagen.com/my/shop/genes-and-pathways/data-analysis-center-overview-page/).

calcineurin (CaN) = test: Serum ELISA of calcineurin in xenograft mice; type: in vivo; details: high-dose M1S9 or TAM 30 mg/kg vs non-treated xenograft mice
Experimental: as §2, §3

[5] = Ferric reducing antioxidant power (FRAP) assay; details: mean ±2 standard deviation (n = 3)
Experimental: Moringa mixtures were subjected to phytochemical analysis following methods described by Harborne (1998) and Kokate (2005), which are based on visual observation of color changes or the formation of precipitates. Quantitative analysis of total flavonoid content (TFC) and total phenolic content (TPC) of moringa mixtures were determined spectrophotometrically by the aluminum calorimetric method (quercetin as the reference standard) and Folin–Ciocalteu method (gallic acid as the reference standard) with minor modifications, respectively. […] These antioxidant assays were carried out according to Yang et al. (2011) with slight modifications. Detailed steps were described previously by Abdul Hisam et al. (2018). All the experiments were conducted in triplicate.

Row | Structure (SMILES) | tumor volume compared to the control mice ([1]; M1S9 all three doses, TAM 30 mg/kg, up to six weeks, p < 0.05) | tumor growth inhibition (highest inhibition rate) ([1]; TAM 30 mg/kg subcutaneously, sixth week) | tumor growth inhibition ([1]; TAM 30 mg/kg subcutaneously, third week) [%] | body weight changes [2] | ES protein level (estrogen (ES)) | VEGF protein level [3] | AR gene expression [4] | CTNNB1 gene expression [4] | ESR1 gene expression [4] | IL6 gene expression [4] | MYC gene expression [4] | NR3C1 gene expression [4] | THBS1 gene expression [4] | CaN protein level (calcineurin (CaN)) | FRAP [5]
1 | CC/C(=C(\c1ccccc1)c1ccc(OCCN(C)C)cc1)c1ccccc1 [TAM, tamoxifen] | significant reduction | up to 80.5% | 69.1 | no significant difference | decreased significantly | decreased significantly | induced significantly | suppressed significantly | induced significantly | induced significantly | induced significantly | induced significantly | induced significantly | decreased significantly | –
2 | O=C1O[C@H]([C@@H](O)CO)C(O)=C1O [ascorbic acid] | – | – | – | – | – | – | – | – | – | – | – | – | – | – | 172.41 ± 12.6 ^$ µg Trolox/mg

From PMC7601446, “Significant Decreased Expressions of CaN, VEGF, SLC39A6 and SFRP1 in MDA-MB-231 Xenograft Breast Tumor Mice Treated with Moringa oleifera Leaves and Seed Residue (MOLSr) Extracts” (Nutrients, 2020)
